Test results as given in US10118902B2 (Sanford Burnham Prebys Medical Discovery Institute, priority 2014, dated 2018).

These compounds were tested against neurotensin receptor 1 (NTR1) (Homo sapiens (Human), UniProt P30989) (assay: NTR1 dose response, high-content imaging beta-arrestin-GFP assay in NTR1-U2OS cells). Conditions: read-out: EC50.
Type: cell-based

Sequence of neurotensin receptor 1 (NTR1) (P30989 whole entry, species assumed): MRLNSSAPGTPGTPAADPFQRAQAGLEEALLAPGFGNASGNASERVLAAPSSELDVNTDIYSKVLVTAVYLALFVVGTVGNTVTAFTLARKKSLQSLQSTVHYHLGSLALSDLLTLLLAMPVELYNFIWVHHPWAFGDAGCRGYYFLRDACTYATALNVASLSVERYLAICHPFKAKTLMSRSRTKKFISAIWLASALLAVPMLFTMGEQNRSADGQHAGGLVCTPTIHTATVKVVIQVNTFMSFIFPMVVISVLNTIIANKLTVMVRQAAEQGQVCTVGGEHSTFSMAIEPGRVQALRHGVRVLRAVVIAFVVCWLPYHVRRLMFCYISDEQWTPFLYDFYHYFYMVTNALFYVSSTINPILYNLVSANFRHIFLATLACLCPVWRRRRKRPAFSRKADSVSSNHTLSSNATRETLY

| SMILES | EC50 |
| --- | --- |
| COc1ccc(F)cc1C1CCN(c2nc(C3CC3)nc3cc(Cl)c(N(C)CCO)cc23)CC1 [Example 113, 2-({7-chloro-2-cyclopropyl-4-[4-(5-fluoro-2-methoxy-phenyl)-piperidin-1-yl]-quinazolin-6-yl}-methyl-amino)-ethanol] | 2000 to 10000 nM |
| COc1ccccc1C1CCN(c2nc(C3(F)CCCC3)nc3ccc(N(C)CCN4CCOCC4)cc23)CC1 [Example 71, {2-(1fluoro-cyclopentyl)-4-[4-(2-methoxy-phenyl)-piperidin-1-yl]-quinazolin-6-yl}-methyl-(2-morpholin-4-yl-ethyl)-amine] | 2000 to 10000 nM |
| COc1ccccc1N1CCC(Nc2nc(C3CC3)nc3ccc(N(C)CCO)cc23)C1 (centres unmarked) [Example 154, 2-((2-cyclopropyl-4-((1-(2-methoxyphenyl)pyrrolidin-3-yl)amino)quinazolin-6-yl)(methyl)amino)ethanol] | > 10000 nM |
| COc1ccccc1C1CCN(c2nc(C3CC3)nc3ccc(N4CC[C@H](O)C4)cc23)CC1 [Example 173, (S)-1-(2-cyclopropyl-4-(4-(2-methoxyphenyl)piperidin-1-yl)quinazolin-6-yl)pyrrolidin-3-ol] | 500 to 2000 nM |
| COCCN(C)c1ccc2nc(C3CCCC3)nc(N3CCC(c4ccccc4OC)CC3)c2c1 [Example 39, {2-cyclopentyl-4-[4-(2-methoxy-phenyl)-piperidin-1-yl]-quinazolin-6-yl}-(2-methoxy-ethyl)-methyl-amine] | > 10000 nM |
| COc1ccccc1C1CCN(c2nc(C3(F)CC3)nc3ccc(N4CC[C@H](O)C4)cc23)CC1 [Example 177, (S)-1-{2-(1-Fluoro-cyclopropyl)-4-[4-(2-methoxy-phenyl)-piperidin-1-yl]-quinazolin-6-yl}-pyrrolidin-3-ol] | 500 to 2000 nM |
| COc1ccccc1C1CCN(c2nc(C3(C)CC3)nc3ccc(N(C)CCN4CCOCC4)cc23)CC1 [Example 34, 4-(4-(2-methoxyphenyl)piperidin-1-yl)-N-methyl-2-(1-methylcyclopropyl)-N-(2-morpholinoethyl) quinazolin-6-amine] | 2000 to 10000 nM |
| COc1ccccc1C1CCN(c2nc(C3(C(F)(F)F)CCCC3)nc3ccc(N(C)CCN4CCOCC4)cc23)CC1 [Example 56, [4-[4-(2-methoxy-phenyl)-piperidin-1-yl]-2-(1-trifluoromethyl-cyclopentyl)-quinazolin-6-yl]-methyl-(2-morpholin-4-yl-ethyl)-amine] | 2000 to 10000 nM |
| COc1ccccc1C1CCN(c2nc(C3(C)CCCC3)nc3ccc(N(C)CCN4CCOCC4)cc23)CC1 [Example 52] | 2000 to 10000 nM |
| CCCN(C)c1cc2c(N3CCC(c4ccccc4N4CCC4)CC3)nc(C3CC3)nc2cc1F [Example 106, {4-[4-(2-azetidin-1-yl-phenyl)-piperidin-1-yl]-2-cyclopropyl-7-fluoro-quinazolin-6-yl}-methyl-propyl-amine] | > 10000 nM |
| COc1cncnc1C1CCN(c2nc(C3(F)CC3)nc3ccc(N(C)CCO)cc23)CC1 [Example 211, 2-({2-(1-Fluoro-cyclopropyl)-4-[4-(5-methoxy-pyrimidin-4-yl)-piperidin-1-yl]-quinazolin-6-yl}-methyl-amino)-ethanol] | > 10000 nM |
| CCCN(C)c1ccc2nc(C3CC3)nc(N3CCN(C4CCCC4O)CC3)c2c1 (centres unmarked) [Example 141, 2-{4-[2-cyclopropyl-6-(methyl-propyl-amino)-quinazolin-4-yl]-piperazin-1-yl}-cyclopentanol] | > 10000 nM |
| COc1ccccc1C1CCN(c2nc(C3(F)CCC3)nc3ccc(N(C)CCO)cc23)CC1 [Example 59, 2-({2-(1-fluoro-cyclobutyl)-4-[4-(2-methoxy-phenyl)-piperidin-1-yl]-quinazolin-6-yl}-methyl-amino)-ethanol] | < 500 nM |
| COc1ccccc1C1CCN(c2nc(C3(F)CCC3)nc3cnc(N(C)CCO)cc23)CC1 [Example 198, 2-({2-(1-Fluoro-cyclobutyl)-4-[4-(2-methoxy-phenyl)-piperidin-1-yl]-pyrido[3,4-d]pyrimidin-6-yl}-methyl-amino)-ethanol] | 2000 to 10000 nM |
| COc1ccccc1C1CCN(c2nc(C3(C)CCC3)nc3ccc(N(C)CCN4CCOCC4)cc23)CC1 [Example 69, [4-[4-(2-methoxy-phenyl)-piperidin-1-yl]-2-(1-methyl-cyclobutyl)-quinazolin-6-yl]-methyl-(2-morpholin-4-yl-ethyl)-amine] | 500 to 2000 nM |
| COc1ccc(F)cc1C1CCN(c2nc(C3CC3)nc3cc(F)c(N(C)CCO)cc23)CC1 [Example 111, 2-({2-cyclopropyl-7-fluoro-4-[4-(5-fluoro-2-methoxy-phenyl)-piperidin-1-yl]-quinazolin-6-yl}-methyl-amino)-ethanol] | 500 to 2000 nM |
| COc1ccccc1C1CCN(c2nc(C3CC3)nc3cc(N(C)CCO)ccc23)CC1 [Example 169, 2-({2-Cyclopropyl-4-[4-(2-methoxy-phenyl)-piperidin-1-yl]-quinazolin-7-yl}-methyl-amino)-ethanol] | 2000 to 10000 nM |
| COc1ccccc1C1CCN(c2nc(C3CC3)nc3cc(C)c(N(C)CCO)cc23)CC1 [Example 117, 2-({2-cyclopropyl-4-[4-(2-methoxy-phenyl)-piperidin-1-yl]-7-methyl-quinazolin-6-yl}-methyl-amino)-ethanol] | < 500 nM |

| SMILES | EC50 |
| --- | --- |
| CN(C)c1ccccc1C1CCN(c2nc(C3CC3)nc3cc(Cl)c(N(C)CCO)cc23)CC1 [Example 118, 2-({7-chloro-2-cyclopropyl-4-[4-(2-dimethylamino-phenyl)-piperidin-1-yl]-quinazolin-6-yl}-methyl-amino)-ethanol] | 2000 to 10000 nM |
| COc1ccsc1C1CCN(c2nc(C3CC3)nc3ccc(N(C)CCO)cc23)CC1 [Example 138, 2-((2-cyclopropyl-4-(4-(3-methoxythiophen-2-yl)piperidin-1-yl)quinazolin-6-yl)(methyl)amino)ethanol] | 500 to 2000 nM |
| CN(CCO)c1cc2c(N3CCC(c4ccccc4N4CCC4)CC3)nc(C3CC3)nc2cc1Cl [Example 119, 2-({4-[4-(2-azetidin-1-yl-phenyl)-piperidin-1-yl]-7-chloro-2-cyclopropyl-quinazolin-6-yl}-methyl-amino)-ethanol] | 2000 to 10000 nM |
| CN(C)c1ccccc1C1CCN(c2nc(C3(F)CCCC3)nc3ccc(N(C)CCO)cc23)CC1 [Example 75, 2-{[4-[4-(2-dimethylamino-phenyl)-piperidin-1-yl]-2-(1-fluoro-cyclopentyl)-quinazolin-6-yl]-methyl-amino}-ethanol] | 2000 to 10000 nM |
| COCCN(C)Cc1ccc2nc(C3CC3)nc(N3CCC(c4ccccc4OC)CC3)c2c1 [Example 87, {2-cyclopropyl-4-[4-(2-methoxy-phenyl)-piperidin-1-yl]-quinazolin-6-ylmethyl}-(2-methoxy-ethyl)-methyl-amine] | 2000 to 10000 nM |
| CCCN(C)c1cc2c(N3CCC(c4ccccc4OC)CC3)nc(C3CC3)nc2cc1F [Example 105, {2-cyclopropyl-7-fluoro-4-[4-(2-methoxy-phenyl)-piperidin-1-yl]-quinazolin-6-yl}-methyl-propyl-amine] | 2000 to 10000 nM |
| COc1ccccc1C1CCN(c2nc(C3(F)CC3)nc3ccc(N(C)CCOCCF)cc23)CC1 [Example 223, {2-(1-Fluoro-cyclopropyl)-4-[4-(2-methoxy-phenyl)-piperidin-1-yl]-quinazolin-6-yl}-[2-(2-fluoro-ethoxy)-ethyl]-methyl-amine] | 500 to 2000 nM |
| COc1nccnc1C1CCN(c2nc(C3(C)CC3)nc3ccc(N(C)CCO)cc23)CC1 [Example 205, 2-{[4-[4-(3-Methoxy-pyrazin-2-yl)-piperidin-1-yl]-2-(1-methyl-cyclopropyl)-quinazolin-6-yl]-methyl-amino}-ethanol] | 500 to 2000 nM |
| CN(C)c1ccccc1C1CCN(c2nc(C3(C)CC3)nc3ccc(N(C)CCO)cc23)CC1 [Example 25, 2-{[4-[4-(2-dimethylamino-phenyl)-piperidin-1-yl]-2-(1-methyl-cyclopropyl)-quinazolin-6-yl]-methyl-amino}-ethanol] | 2000 to 10000 nM |
| CN(C)c1ccccc1C1CCN(c2nc(C3(C(F)(F)F)CCCC3)nc3ccc(N(C)CCO)cc23)CC1 [Example 57, 2-{[4-[4-(2-dimethylamino-phenyl)-piperidin-1-yl]-2-(1-trifluoromethyl-cyclopentyl)-quinazolin-6-yl]-methyl-amino}-ethanol] | 500 to 2000 nM |
| COc1ccccc1N(C)C1CCCC1Nc1nc(C2CC2)nc2ccc(N(C)CCO)cc12 (centres unmarked) [Example 151, 2-[(2-cyclopropyl-4-{2-[(2-methoxy-phenyl)-methyl-amino]-cyclopentylamino}-quinazolin-6-yl)-methyl-amino]-ethanol] | > 10000 nM |
| CCCN(C)c1ccc2nc(-c3ccccc3)nc(N3CCC(c4ccccc4OC)CC3)c2c1 [Example 146, {4-[4-(2-methoxy-phenyl)-piperidin-1-yl]-2-phenyl-quinazolin-6-yl}-methyl-propyl-amine] | > 10000 nM |
| COC(=O)Cc1c(C)nc(N2CCC(c3ccccc3OC)CC2)nc1C1CC1 [Example 161, {4-cyclopropyl-2-[4-(2-methoxy-phenyl)-piperidin-1-yl]-6-methyl-pyrimidin-5-yl}-acetic acid methyl ester] | > 10000 nM |
| COc1ccccc1C1CCN(c2nc(C3(F)CCC3)nc3cnc(N4CC[C@H](O)C4)cc23)CC1 [Example 200, 1-{2-(1-Fluoro-cyclobutyl)-4-[4-(2-methoxy-phenyl)-piperidin-1-yl]-pyrido[3,4-d]pyrimidin-6-yl}-pyrrolidin-3-ol] | 2000 to 10000 nM |
| Cc1cc2nc(C3CC3)nc(N3CCC(c4ccccc4N4CCC4)CC3)c2cc1N(C)CCO [Example 121, 2-({4-[4-(2-azetidin-1-yl-phenyl)-piperidin-1-yl]-2-cyclopropyl-7-methyl-quinazolin-6-yl}-methyl-amino)-ethanol] | 500 to 2000 nM |
| COc1cccnc1C1CCN(c2nc(C3(F)CC3)nc3c(F)cc(N(C)CCO)cc23)CC1 [Example 216, 2-{[8-Fluoro-2-(1-fluoro-cyclopropyl)-4-(3-methoxy-3′,4′,5′,6′-tetrahydro-2′H-[2,4′]bipyridinyl-1′-yl)-quinazolin-6-yl]-methyl-amino}-ethanol] | 2000 to 10000 nM |
| COc1ccccc1C1CCN(c2nc(C3CC3)nc3c(F)cc(N(C)CCO)cc23)CC1 [Example 133, 2-((2-cyclopropyl-8-fluoro-4-(4-(2-methoxyphenyl)piperidin-1-yl)quinazolin-6-yl)(methyl)amino)ethanol] | < 500 nM |
